According to patent US20120238865A1, “Method for Measuring the Physiological Parameters of Brain Interstitial Fluid and Brain Extracellular Space” (priority 2009, published 2012):

Key:
[1] = Linear fitting of MRI signal intensity vs contrast agent concentration in agarose; assay type: physicochemical
Procedure: According to the curve, when the concentration of the contrast agents is in the range of 0-5 mM, the SI increased with the concentration. The concentration is related to the SI. In the curve, the abscissa is the concentration of the contrast agent which reflects the mobility of the ISF in brain ECS and the ordinate is the SI of MRI. It is known by the persons skilled in art that the SI here may be the directly SI or the result which is calculated indirectly from the SI such as T1. In the exemplary embodiment, the contrast agents are Gd-DPTA. Other non-ferromagnetic, non-neurotoxicity and extracellular contrast agents, such as T1 positive MRI contrast agent, also can be used here.
According to the curve shown in FIG. 2, the liner equation of the curve is obtained as below
In the four experiments, injecting contrast agents with different concentration range are into agarose, the distribution of SI of the MRI is measured in different magnetic field intensity or different MRI sequence. When quantitative measuring the contrast agents via the SI, the value of K and B can be determined via linear fitting according to the experimental conditions,
FIG. 3 is a fitting curve of the SI and the concentration of the contrast agents corresponding to the Experiment 1 shown in Table 1. It is the measurement result under the circumstances that the magnetic field intensity is 1.5T, the MRI sequence is FLASH 2D, the contrast agent is Gd-DTPA and the concentration range is 0 to 1.2 mM. According to the fitting curve, the value of K is 337.434 and the value of B is 184.344.

[2] = MRI of contrast agent diffusion after injection into brain ECS of rat caudate nucleus; assay type: in vivo
Procedure: In this exemplary embodiment, the rat 10 is anesthetized and incised in the scalp along the sagittal suture. The periosteum was separated and the bregma was exposed. 1 μL Gd-DTPA with concentration range of 5 to 25 mM is injected into the brain ECS of the rat caudate nucleus at the rate of 0.1 μL/min.
The microsyringe is slowly removed 5 minutes after injecting. In FIG. 4, the rat narcotized is placed in the wrist coil 30 in the prone position and sent into the imaging device 20 with the examination couch 12. A T1 weighted sequence is used for the MRI scanning MR images from the imaging device 20 are processed in the image-processing unit of the controlling device 40.
FIG. 6 is a curve of SI increment (ASI) vs. time of the contrast agents along X direction of FIG. 5 at the spots respectively 1 mm, 2 mm, and 3 mm away from the injection site. The increment of SI reflected the concentration increment of the contrast agents. In FIG. 6, the peak of ASI appears in the region which is 1 mm away from the injection site about 1 h after injection, and then value of ASI slowly falls down.

O=C([O-])CN(CCN(CC(=O)[O-])CC(=O)O)CCN(CC(=O)[O-])CC(=O)O.[Gd+3] [Gd-DTPA]
Value of K (slope of SI vs concentration) ([1]; Experiment 1: 1.5T, FLASH 2D, concentration range 0-1.2 mM): 337.434
Value of K (slope of SI vs concentration) ([1]; Experiment 2: 3T, FLASH 2D, concentration range 0-1.2 mM): 247.834
Value of K (slope of SI vs concentration) ([1]; Experiment 3: 3T, 3D MP-RAGE, concentration range 0-0.5 mM): 1913.686
Value of K (slope of SI vs concentration) ([1]; Experiment 4: 3T, 3D MP-RAGE, concentration range 0-1 mM): 1174.5
Time of peak of SI increment (ASI) after injection ([2]; 1 mm away from injection site along X direction, 1 μL 5 to 25 mM into caudate nucleus): about 1 h
Course of SI increment (ASI, concentration increment) over time ([2]; spots 2 mm and 3 mm away from injection site (cortex)): first slowly increases then slowly decreases
